Measured values taken from US6914045B2, “Glycopeptide antibiotics” (Wyeth Holdings Corporation, priority 2001, dated 2005).
Values after ≈ are worked out from the molar mass of the structure shown.

Legend:
Assay in all cases: in vitro antibacterial evaluation, MIC by broth dilution
Assay type in all cases: cell-based
[1] = test system: Streptococcus sp.; details: broth dilution, 18 hours at 35° C.
How it was run: (§1)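 Inoculum 5×10^5 CFU/mL; concentrations 64 to 0.06 μg/mL; MIC defined as lowest inhibitory level. Conducted by broth dilution under NCCLS guidelines.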

[2] = test system: Escherichia coli; details: 18 hours at 35° C.
How it was run: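 MIC = lowest antibiotic concentration preventing visible growth; inoculum 5×10^5 CFU/mL; drug range 64-0.06 μg/mL; Muller-Hinton II […]; NCCLS M7-A2 guidance.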

[3] = test system: Staphylococcus sp.; details: broth dilution, 18 hours at 35° C.
How it was run: as §1

[4] = test system: Enterococcus sp.; details: broth dilution, 18 hours at 35° C.
How it was run: as §1

In the case of `CC(c1ccccc1)C1NC(=O)CNC(=O)C(CO)NC(=O)C(C(O)C2CNC(=N)N2C2OC(CO)C(O)C(O)C2O)NC(=O)C(C(O)C2CNC(=N)N2)NC(=O)C(Cc2ccc(OC3OC(CO)C(OC4OC(COC(=O)NCc5ccccc5)C(O)C(O)C4O)C(O)C3O)cc2)NC1=O` (stereo not drawn) [Example 257b], the “MIC Streptococcus agalactiae (GC 4564)” value [1] is reported as 1 µg/mL (≈ 0.7 µM), the “MIC Streptococcus pneumoniae (ATCC 6301)” value [1] is reported as 0.25 µg/mL (≈ 0.175 µM) and the “MIC Streptococcus pneumoniae (GC 1894)” value [1] is reported as 0.25 µg/mL (≈ 0.175 µM). For the same molecule, the “MIC Streptococcus pneumoniae (GC 4565)” value [1] was 0.5 µg/mL (≈ 0.35 µM), the “MIC Streptococcus pyogenes (GC 4563)” value [1] was 0.12 µg/mL (≈ 0.084 µM) and the “MIC Streptococcus pneumoniae (ATCC 6301)” value ([1]; strain ATCC 6301) was 0.25 µg/mL (≈ 0.175 µM). For the same molecule, the “MIC Streptococcus pneumoniae (GC 1894)” value ([1]; strain GC 1894) was 0.25 µg/mL (≈ 0.175 µM), the “MIC Streptococcus pyogenes (GC 4563)” value ([1]; strain GC 4563) was 0.12 µg/mL (≈ 0.084 µM) and the “MIC Streptococcus agalactiae (GC 4564)” value ([1]; strain GC 4564) was 1 µg/mL (≈ 0.7 µM). For the same molecule, the “MIC Streptococcus pneumoniae (GC 4565)” value ([1]; strain GC 4565) was 0.5 µg/mL (≈ 0.35 µM), the “MIC Escherichia coli (ATCC 25922)” value ([2]; Escherichia coli (ATCC 25922)) was >0.5 µg/mL and the “MIC Escherichia coli (GC 4559)” value ([2]; Escherichia coli (GC 4559)) was >0.5 µg/mL. For the same molecule, the “MIC Escherichia coli (GC 4560)” value ([2]; Escherichia coli (GC 4560)) was 0.5 µg/mL (≈ 0.35 µM), the “MIC Coagulase Negative Staphylococcus (GC 4547)” value [3] was 2 µg/mL (≈ 1.4 µM) and the “MIC Coagulase Negative Staphylococcus (GC 4548)” value [3] was 2 µg/mL (≈ 1.4 µM). For the same molecule, the “MIC Coagulase Negative Staphylococcus (GC 4549)” value [3] was 2 µg/mL (≈ 1.4 µM), the “MIC Coagulase Negative Staphylococcus (GC 4551)” value [3] was 4 µg/mL (≈ 2.8 µM) and the “MIC Coagulase Negative Staphylococcus (GC 6257)” value [3] was 1 µg/mL (≈ 0.7 µM). For the same molecule, the “MIC Staphylococcus aureus (ATCC 29213)” value [3] was 0.5 µg/mL (≈ 0.35 µM), the “MIC Staphylococcus aureus (GC 1131)” value [3] was 0.5 µg/mL (≈ 0.35 µM) and the “MIC Staphylococcus aureus (GC 3051)” value [3] was 0.5 µg/mL (≈ 0.35 µM). The “MIC Staphylococcus aureus (GC 3053)” value [3] was 0.5 µg/mL (≈ 0.35 µM), the “MIC Staphylococcus aureus (GC 4541)” value [3] was 0.5 µg/mL (≈ 0.35 µM) and the “MIC Staphylococcus aureus (GC 4542)” value [3] was 0.5 µg/mL (≈ 0.35 µM). The “MIC Staphylococcus aureus (GC 4544)” value [3] was 0.5 µg/mL (≈ 0.35 µM), the “MIC Staphylococcus aureus (GC 4545)” value [3] was 0.5 µg/mL (≈ 0.35 µM) and the “MIC Staphylococcus aureus-SMITH (GC 4543)” value [3] was 0.5 µg/mL (≈ 0.35 µM). For the same molecule, the “MIC Staphylococcus haemolyticus (GC 4546)” value [3] was 2 µg/mL (≈ 1.4 µM), the “MIC Staphylococcus aureus (ATCC 29213)” value ([3]; strain ATCC 29213) was 0.5 µg/mL (≈ 0.35 µM) and the “MIC Staphylococcus aureus (GC 1131)” value ([3]; strain GC 1131) was 0.5 µg/mL (≈ 0.35 µM). The “MIC Staphylococcus aureus (GC 3051)” value ([3]; strain GC 3051) was 0.5 µg/mL (≈ 0.35 µM), the “MIC Staphylococcus aureus (GC 3053)” value ([3]; strain GC 3053) was 0.5 µg/mL (≈ 0.35 µM) and the “MIC Staphylococcus aureus (GC 4541)” value ([3]; strain GC 4541) was 0.5 µg/mL (≈ 0.35 µM). The “MIC Staphylococcus aureus (GC 4542)” value ([3]; strain GC 4542) was 0.5 µg/mL (≈ 0.35 µM), the “MIC Staphylococcus aureus (GC 4544)” value ([3]; strain GC 4544) was 0.5 µg/mL (≈ 0.35 µM) and the “MIC Staphylococcus aureus (GC 4545)” value ([3]; strain GC 4545) was 0.5 µg/mL (≈ 0.35 µM). The “MIC Enterococcus avium (GC 4558)” value ([4]; Enterococcus avium (GC 4558)) was 0.5 µg/mL (≈ 0.35 µM), the “MIC Enterococcus faecalis (ATCC 29212)” value ([4]; Enterococcus faecalis (ATCC 29212)) was 0.5 µg/mL (≈ 0.35 µM) and the “MIC Enterococcus faecalis (GC 4553)” value ([4]; Enterococcus faecalis (GC 4553)) was 0.5 µg/mL (≈ 0.35 µM). The “MIC Enterococcus faecalis (GC 4554)” value ([4]; Enterococcus faecalis (GC 4554)) was >0.5 µg/mL, the “MIC Enterococcus faecalis (GC 6189)” value ([4]; Enterococcus faecalis (GC 6189)) was 0.5 µg/mL (≈ 0.35 µM) and the “MIC Enterococcus faecium (GC 2243)” value ([4]; Enterococcus faecium (GC 2243)) was 16 µg/mL (≈ 11.2 µM). For the same molecule, the “MIC Enterococcus faecium (GC 4556)” value ([4]; Enterococcus faecium (GC 4556)) was 16 µg/mL (≈ 11.2 µM), the “MIC Enterococcus faecium (GC 4557)” value ([4]; Enterococcus faecium (GC 4557)) was 2 µg/mL (≈ 1.4 µM) and the “MIC Enterococcus faecalis (GC 2242)” value [4] was 0.5 µg/mL (≈ 0.35 µM). The “MIC Enterococcus faecalis (GC 2691)” value [4] was 0.5 µg/mL (≈ 0.35 µM), the “MIC Enterococcus faecalis (GC 3059)” value [4] was 0.5 µg/mL (≈ 0.35 µM) and the “MIC Enterococcus faecalis (GC 4552)” value [4] was >0.5 µg/mL. The “MIC Enterococcus faecalis (ATCC 29212)” value ([4]; strain ATCC 29212) was 0.5 µg/mL (≈ 0.35 µM), the “MIC Enterococcus faecalis (GC 2242)” value ([4]; strain GC 2242) was 0.5 µg/mL (≈ 0.35 µM) and the “MIC Enterococcus faecium (GC 2243)” value ([4]; strain GC 2243) was 16 µg/mL (≈ 11.2 µM). For the same molecule, the “MIC Enterococcus faecalis (GC 2691)” value ([4]; strain GC 2691) was 0.5 µg/mL (≈ 0.35 µM), the “MIC Enterococcus faecalis (GC 3059)” value ([4]; strain GC 3059) was 0.5 µg/mL (≈ 0.35 µM) and the “MIC Enterococcus faecalis (GC 4552)” value ([4]; strain GC 4552) was >0.5 µg/mL. For the same molecule, the “MIC Enterococcus faecalis (GC 4553)” value ([4]; strain GC 4553) was 0.5 µg/mL (≈ 0.35 µM), the “MIC Enterococcus faecalis (GC 4554)” value ([4]; strain GC 4554) was >0.5 µg/mL and the “MIC Enterococcus faecium (GC 4556)” value ([4]; strain GC 4556) was 16 µg/mL (≈ 11.2 µM). The “MIC Enterococcus faecium (GC 4557)” value ([4]; strain GC 4557) was 2 µg/mL (≈ 1.4 µM), the “MIC Enterococcus avium (GC 4558)” value ([4]; strain GC 4558) was 0.5 µg/mL (≈ 0.35 µM) and the “MIC Enterococcus faecalis (GC 6189)” value ([4]; strain GC 6189) was 0.5 µg/mL (≈ 0.35 µM).
